Experimental findings from paper PMC5951806, “Rapid labelling and covalent inhibition of intracellular native proteins using ligand-directed N-acyl-N-alkyl sulfonamide” (Nature Communications, 2018) are described below.

Test [1] has as its target T1, ATP-citrate synthase (ACLY) (Homo sapiens, UniProt P53396).
T1 sequence (P53396 1-1101): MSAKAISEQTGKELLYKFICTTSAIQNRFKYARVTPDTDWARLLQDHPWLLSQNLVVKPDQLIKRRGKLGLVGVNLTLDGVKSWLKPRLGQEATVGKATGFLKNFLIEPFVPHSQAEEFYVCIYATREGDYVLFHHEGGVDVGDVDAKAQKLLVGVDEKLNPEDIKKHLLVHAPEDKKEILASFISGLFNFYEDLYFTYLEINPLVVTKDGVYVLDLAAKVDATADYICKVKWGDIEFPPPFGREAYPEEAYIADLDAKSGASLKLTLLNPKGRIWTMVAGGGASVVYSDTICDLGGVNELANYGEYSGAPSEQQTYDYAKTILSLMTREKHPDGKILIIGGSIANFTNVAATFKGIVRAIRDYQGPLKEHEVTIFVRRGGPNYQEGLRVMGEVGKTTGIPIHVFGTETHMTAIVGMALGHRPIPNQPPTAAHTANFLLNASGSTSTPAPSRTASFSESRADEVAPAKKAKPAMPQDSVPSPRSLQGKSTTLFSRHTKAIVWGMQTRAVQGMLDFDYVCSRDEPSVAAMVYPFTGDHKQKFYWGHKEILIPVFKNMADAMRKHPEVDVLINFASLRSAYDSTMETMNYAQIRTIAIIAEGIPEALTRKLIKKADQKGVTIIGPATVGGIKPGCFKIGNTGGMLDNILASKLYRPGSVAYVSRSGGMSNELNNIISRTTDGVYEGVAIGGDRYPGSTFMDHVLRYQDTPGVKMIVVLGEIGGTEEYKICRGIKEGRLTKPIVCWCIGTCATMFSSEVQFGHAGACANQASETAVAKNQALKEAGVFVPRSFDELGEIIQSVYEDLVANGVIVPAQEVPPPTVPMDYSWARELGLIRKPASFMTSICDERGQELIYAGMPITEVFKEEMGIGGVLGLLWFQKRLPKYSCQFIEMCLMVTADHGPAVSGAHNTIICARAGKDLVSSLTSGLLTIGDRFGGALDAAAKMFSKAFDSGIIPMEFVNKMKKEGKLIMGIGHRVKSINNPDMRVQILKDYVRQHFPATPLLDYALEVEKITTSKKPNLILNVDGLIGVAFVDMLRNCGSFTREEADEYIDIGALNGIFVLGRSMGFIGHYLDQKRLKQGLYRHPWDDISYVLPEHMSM
The test is described as follows: TMT LC-MSMS of 11-labelled proteins. In kind it is cell-based.

The target in test [2] is Fatty acid synthase (FASN) (Homo sapiens, UniProt P49327). Nature of the test: TMT LC-MSMS of 11-labelled proteins. Format: cell-based.
Setting [3] is: sheet Merged, SKBR3 cells, 11 0.5 µM 3 h vs DMSO.
Setting [4] is: sheet Merged, SKBR3 cells, 11 0.5 µM 3 h vs with PU-H71 10 µM.

Sequence of Fatty acid synthase (FASN) (P49327 whole entry): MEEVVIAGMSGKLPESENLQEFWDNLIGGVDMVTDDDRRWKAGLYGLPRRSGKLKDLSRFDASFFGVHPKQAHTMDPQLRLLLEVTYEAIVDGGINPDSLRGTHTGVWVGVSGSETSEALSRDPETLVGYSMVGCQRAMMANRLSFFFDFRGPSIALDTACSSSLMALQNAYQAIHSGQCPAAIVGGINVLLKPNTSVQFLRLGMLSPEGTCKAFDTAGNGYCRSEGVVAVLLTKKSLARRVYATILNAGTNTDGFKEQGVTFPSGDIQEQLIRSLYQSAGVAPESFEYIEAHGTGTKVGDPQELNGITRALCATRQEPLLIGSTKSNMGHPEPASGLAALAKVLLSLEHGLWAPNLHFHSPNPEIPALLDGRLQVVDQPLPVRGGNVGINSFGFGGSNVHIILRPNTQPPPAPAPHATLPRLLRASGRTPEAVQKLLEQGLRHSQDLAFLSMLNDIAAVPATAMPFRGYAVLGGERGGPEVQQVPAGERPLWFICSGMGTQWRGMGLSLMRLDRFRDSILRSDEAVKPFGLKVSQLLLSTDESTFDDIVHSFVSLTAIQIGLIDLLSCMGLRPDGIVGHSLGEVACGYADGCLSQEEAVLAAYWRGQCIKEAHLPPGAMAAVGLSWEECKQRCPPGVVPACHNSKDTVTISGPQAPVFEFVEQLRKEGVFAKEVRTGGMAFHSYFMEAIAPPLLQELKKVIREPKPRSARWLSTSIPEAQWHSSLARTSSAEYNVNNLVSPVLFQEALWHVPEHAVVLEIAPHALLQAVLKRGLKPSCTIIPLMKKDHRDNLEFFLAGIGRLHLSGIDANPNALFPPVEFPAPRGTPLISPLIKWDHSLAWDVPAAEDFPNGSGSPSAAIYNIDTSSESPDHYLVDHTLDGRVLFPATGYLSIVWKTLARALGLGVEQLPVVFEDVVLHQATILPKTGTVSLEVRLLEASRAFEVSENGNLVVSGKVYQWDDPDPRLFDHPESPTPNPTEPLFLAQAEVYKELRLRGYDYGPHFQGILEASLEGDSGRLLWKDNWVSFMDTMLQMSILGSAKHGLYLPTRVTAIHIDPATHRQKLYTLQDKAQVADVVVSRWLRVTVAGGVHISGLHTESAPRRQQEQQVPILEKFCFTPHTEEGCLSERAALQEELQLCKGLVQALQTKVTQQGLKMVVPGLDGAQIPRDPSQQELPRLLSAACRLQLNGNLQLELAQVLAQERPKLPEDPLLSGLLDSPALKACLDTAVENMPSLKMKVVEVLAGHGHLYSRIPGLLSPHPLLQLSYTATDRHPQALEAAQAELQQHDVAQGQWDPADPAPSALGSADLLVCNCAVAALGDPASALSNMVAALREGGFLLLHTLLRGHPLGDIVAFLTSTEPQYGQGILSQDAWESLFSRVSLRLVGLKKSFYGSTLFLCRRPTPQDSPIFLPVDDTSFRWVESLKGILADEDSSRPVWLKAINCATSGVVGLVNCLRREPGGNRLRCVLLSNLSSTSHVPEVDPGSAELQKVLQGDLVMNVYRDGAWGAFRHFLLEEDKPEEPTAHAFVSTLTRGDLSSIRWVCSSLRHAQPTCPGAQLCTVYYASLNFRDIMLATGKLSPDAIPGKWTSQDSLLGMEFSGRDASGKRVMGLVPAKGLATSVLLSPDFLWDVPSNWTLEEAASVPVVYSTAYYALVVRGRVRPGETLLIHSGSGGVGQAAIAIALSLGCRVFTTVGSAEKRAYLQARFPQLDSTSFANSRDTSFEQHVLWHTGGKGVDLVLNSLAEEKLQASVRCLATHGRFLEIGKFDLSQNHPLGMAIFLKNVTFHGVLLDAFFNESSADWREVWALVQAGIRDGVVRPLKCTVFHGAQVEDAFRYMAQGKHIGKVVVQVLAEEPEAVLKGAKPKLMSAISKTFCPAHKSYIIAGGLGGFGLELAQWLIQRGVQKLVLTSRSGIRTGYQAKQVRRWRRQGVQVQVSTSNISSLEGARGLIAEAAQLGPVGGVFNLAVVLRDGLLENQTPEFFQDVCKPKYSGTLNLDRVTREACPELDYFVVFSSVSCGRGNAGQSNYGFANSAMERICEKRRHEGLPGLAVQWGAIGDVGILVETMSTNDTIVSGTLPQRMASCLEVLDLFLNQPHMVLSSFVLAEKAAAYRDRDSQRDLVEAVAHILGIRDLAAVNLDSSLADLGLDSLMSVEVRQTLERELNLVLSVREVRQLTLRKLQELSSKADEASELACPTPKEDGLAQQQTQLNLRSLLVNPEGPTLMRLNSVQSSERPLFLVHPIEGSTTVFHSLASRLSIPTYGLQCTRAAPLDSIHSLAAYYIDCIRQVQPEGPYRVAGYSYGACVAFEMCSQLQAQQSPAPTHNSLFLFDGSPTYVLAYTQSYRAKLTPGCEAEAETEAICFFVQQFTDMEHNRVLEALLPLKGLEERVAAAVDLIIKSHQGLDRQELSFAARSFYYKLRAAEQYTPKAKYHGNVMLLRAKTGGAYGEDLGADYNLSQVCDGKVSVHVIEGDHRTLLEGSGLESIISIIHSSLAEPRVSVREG

Take `CC(=O)Oc1ccc2c(c1)Oc1cc(OC(C)=O)ccc1C21OC(=O)c2cc(C(=O)NCCOCCOCCNC(=O)CCCC(=O)N(CC#N)S(=O)(=O)c3ccc(C(=O)NCCCn4c(Sc5cc6c(cc5I)OCO6)nc5c(N)ncnc54)cc3)ccc21` [compound 11]: the “Abundance Ratio: (11) / (11 with PU-H71)” value in test [1] (Exp3, ACLY) worked out at 0.932; in test [1] (sheet Exp2, ACLY) it was 0.837; in test [1] (setting [4]) it was 0.851; in test [2] (Exp3, FASN), 0.917; in test [2] (sheet Exp1, SKBR3 cells, 11 0.5 µM 3 h vs with PU-H71 10 µM), 0.931; in test [2] (sheet Exp2, FASN), 0.929. The “Abundance Ratio: (11) / (11 with PU-H71)” value in test [2] (setting [4]) is recorded as 0.931. Further, the “Abundance Ratio: (11) / (DMSO)” value in test [1] (Exp3, ACLY) is reported as 2.236; in test [1] (sheet Exp2, ACLY), 2.101; in test [1] (setting [3]), 2.047; in test [2] (Exp3, FASN) it was 4.35; in test [2] (sheet Exp1, SKBR3 cells, 11 0.5 µM 3 h vs DMSO), 4.652; in test [2] (sheet Exp2, FASN), 4.46. For the same molecule, the “Abundance Ratio: (11) / (DMSO)” value in test [2] (setting [3]) is 4.491. In addition, the “Abundances (Grouped): 11” value in test [1] (Exp3, ACLY) is listed as 52.1; in test [1] (sheet Exp2, ACLY), 33.4; in test [2] (Exp3, FASN), 3505; in test [2] (sheet Exp2, FASN) it was 3656.7. In addition, the “Abundances (Grouped): 11 with PU-H71” value in test [1] (Exp3, ACLY) came out at 55.9; in test [1] (sheet Exp2, ACLY), 39.9; in test [2] (Exp3, FASN) it was 3823.4; in test [2] (sheet Exp2, FASN), 3935.1.
